Experiments:
[1] = breast cancer patients; cited from earlier work
[2] = test system: human MDA-MB-231 mammary tumor xenografts; assay: Antitumor efficacy study ATL-3, IV Q1Dx5 and Q4Dx3; assay type: in vivo, human tumor in female athymic NCr-nu/nu mice; conditions: for complete tumor regressions: ten mice
Method: Experiment ATL-3 was performed to evaluate the antitumor activity of the intravenous (IV) treatment with formulated ART-207 when administered on two different schedules to female, athymic NCr-nu/nu mice implanted subcutaneously (SC) with human MDA-MB-231 mammary tumor xenografts. Paclitaxel was included as a reference compound. • Tumor Model:
Individual tumors of 90 animals grew to 88-216 mg in weight (88-216 mm3 in size) on Day 10 after tumor fragments implantation, the day of treatment initiation. […] The time points are indicated starting from the first day of treatment with formulated ART-207, vehicle control and Paclitaxel. • Study Design: […]
Animals in Groups 2, 3, and 4 were treated with formulated ART-207 which was administered IV on a Q1Dx5 schedule starting on Day 0 (Days 0-4) at doses of 105.2, 78.9, and 52.6 mg/kg/injection, respectively. Animals in Group 5 (Emulsion control) were treated IV on Q1Dx5 schedule starting on Day 0 with a drug free formulation. […] Animals in Group 7 were treated with formulated ART-207 which was administered IV once every four days for a total of three injections (Q4Dx3) starting on Day 0 (Days 0, 4, and 8) at a dose of 78.9 mg/kg/injection. Animals in Group 8 (Emulsion control) were treated IV on a Q4Dx3 schedule starting on Day 0 with a drug free formulation. Animals in Group 9 were treated IV on a Q4Dx3 schedule starting on Day 0 with paclitaxel at a dose of 18.9 mg/kg/injection.

[3] = PK/PD study ATL-4: plasma and tissue concentrations after single IV injection, nontumored mice; assay type: in vivo, female athymic NCr-nu/nu mice; conditions: paclitaxel 18.9 mg/kg single IV
Method: Tumor Model; Experiment ATL-4. Animals were nontumored.
Experiment ATL-4: The study consisted of ten groups of three nontumored mice per group for a total of 30 mice on Day 1, one day before the treatment. All treatments were administered as a single IV injection on Day 2.

[4] = MTD/tolerability study ATL-1, IV Q1Dx5, nontumored mice
Method: (§1) MTD study consisted of two major phases:
(§2) Material remaining from the dosing emulsion solutions was shipped back to Arbor Therapeutics after the end of the treatment phase. […] The assessment of returned material was carried out side by side with material retained.
(§3) Paclitaxel was included as a reference compound. • Tumor Model:
The studies ATL-1 and ATL-2 consisted each of six groups of five nontumored mice per group for a total of 30 mice on Day 1, the first day of treatment. All treatments were administered intravenously (IV) once a day for five consecutive days (Q1Dx5) beginning on Day 1.
(§4) Animals in Group 5 (Emulsion control) were treated with a drug free formulation (injection volume of 0.21 mL/20 g of body weight).

[5] = test system: human MDA-MB-231 mammary tumor xenografts; assay: MTD/tolerability and efficacy study ATL-2, IV Q1Dx5, tumored mice
Method: as §1, §2, §3
[…] All treatments were administered intravenously (IV) once a day for five consecutive days (Q1Dx5) beginning on Day 1.
as §4

[6] = Study # 2, tumor size 150 mg, Q1Dx5, dose 15 mpk
[7] = paclitaxel 15 mg/kg/injection IV Q1Dx5 (Group 6)
[8] = paclitaxel 18.9 mg/kg/injection IV Q4Dx3 (Group 9)
[9] = IV Q1Dx5, formulated ART-207 72.6, 47.1, 35.7 and 23.7 mg/kg/injection, paclitaxel 15 mg/kg/injection
[10] = Study # 1, tumor size 270 mg, Q1Dx5, dose 15 mpk

For `CC(=O)O[C@H]1C(=O)[C@@]2(C)[C@H]([C@H](OC(=O)c3ccccc3)[C@]3(O)C[C@H](OC(=O)[C@H](O)[C@@H](NC(=O)c4ccccc4)c4ccccc4)C(C)=C1C3(C)C)[C@]1(OC(C)=O)CO[C@@H]1C[C@@H]2O` [Paclitaxel], the “half-life (t1/2)” value [1] is listed as 3.5 ± 0.80 h, the “Survival rate (end of study)” value [2, 6] is listed as 40% and the “Tumor free mice (end of study)” value [2, 6] is listed as 40%. The “animals tumor-free on Day 56” value [2, 7] was “four”, the “median tumor growth delay” value [2, 7] was 31.8 days and the deaths ([2]; paclitaxel 15 mg/kg/injection IV Q1Dx5 (Group 6), Day 2) was “one out of ten”. For the same compound, the “animals euthanized due to ataxia” value ([2]; paclitaxel 15 mg/kg/injection IV Q1Dx5 (Group 6), Day 12) was “One”, the complete tumor regressions [2, 7] was “five” and the “tolerability / deaths (in words)” value [2, 8] was “tolerated without deaths or mean body weight loss”. For the same compound, the complete tumor regressions [2, 8] was “one”, the AUC(0-t) ([3]; female, athymic NCr-nu/nu, mouse, plasma, read-out: AUClast for paclitaxel in plasma) was 37700 ng·h/mL and the half-life ([3]; female, athymic NCr-nu/nu, mouse, plasma, read-out: apparent terminal elimination half-life of paclitaxel in plasma (converted)) was 1 h. For the same compound, the clearance ([3]; female, athymic NCr-nu/nu, mouse, plasma, read-out: total body clearance of paclitaxel (converted)) was 8.33 mL/min/kg, the Vd ([3]; female, athymic NCr-nu/nu, mouse, plasma, read-out: volume of distribution of paclitaxel at steady state) was 0.658 L/kg and the “mean peak plasma concentration of paclitaxel” value ([3]; at 5 minutes (0.083 hours)) was 32.9 µg/mL. The “maximum tolerated dose (MTD)” value ([4]; IV Q1Dx5, nontumored mice, no death or more than 20% body weight loss within 14 days of end of treatment) was “above 15 mg/kg/injection”, the “tolerability / deaths (in words)” value [4, 9] was “tolerated without deaths” and the “maximum tolerated dose (MTD)” value ([5]; IV Q1Dx5, tumored mice) was “below 15 mg/kg/injection”. The “tolerability / deaths (in words)” value [5, 9] was “toxic”, the “animals died before day 11” value ([5]; Paclitaxel 15 mg/kg IV Q1Dx5, day 0 = first treatment) was 4 of 5 and the “Survival rate (end of study)” value [5, 10] was 20%. For the same compound, the “Tumor free mice (end of study)” value [5, 10] was 0%, the “animals euthanized due to being moribund” value ([5]; paclitaxel 15 mg/kg/injection IV Q1Dx5, Days 20 and 21) was “two” and the deaths ([5]; paclitaxel 15 mg/kg/injection IV Q1Dx5, both deaths on Day 19) was “two out of five”. For the same compound, the “tumor weight of the surviving animal” value ([5]; paclitaxel 15 mg/kg/injection, Day 13) was 180 mg and the “tumor weight of the surviving animal” value ([5]; paclitaxel 15 mg/kg/injection, Day 47) was 32 mg.

From patent publication US10369105B2, “Nanoparticulate compositions for targeted delivery of acid labile, lipophilic prodrugs of cancer chemotherapeutics and their preparation” (Veiled Therapeutics LLC, priority 2014, dated 2019)
